Assay results reported in patent US6927230B2, “Triazole derivatives” (Fujisawa Pharmaceutical Co., Ltd., priority 2001, dated 2005).

Tested on: adjuvant arthritis in Lewis rats
Assay: Analgesic activity: effect on adjuvant arthritis in rats (Randall-Selitto pain threshold)
Type: in vivo, rat
Conditions: dose 3.2 mg/kg; ratio of mechanical pain threshold of treated vs non-treated arthritic rats, 2 hr after administration; ratio of 1.5 = effective dose

Row | SMILES | The coefficient of analgesic
1 | COc1ccc(-c2nc(C(F)(F)F)nn2-c2ccc(OC)cc2)cc1 [1(2), 1,5-bis(4-methoxyphenyl)-3-(trifluoromethyl)-1H-1,2,4-triazole] | >=1.5
2 | COc1ccc(-c2nc(OC)nn2-c2ccc(OC)cc2)cc1 [5(4), 3-Methoxy-1,5-bis(4-methoxyphenyl)-1H-1,2,4-triazole] | >=1.5
3 | COc1ccc(-c2nc(OC3CCCCC3)nn2-c2ccc(OC)cc2)cc1 [Example 25, 1,5-bis(4-methoxyphenyl)-3-cyclohexyloxy-1H-1,2,4-triazole] | >=1.5

Target: T1, COX-I (Homo sapiens, UniProt P23219)
T1 construct: Fresh blood was collected by syringe without anticoagulants from volunteers with consent; from tissue; host or cells: fresh human whole blood from volunteers, no anticoagulant, allowed to clot
Assay: Whole blood assay for COX-I (TXB2 production)
Type: cell-based
Conditions: not given
Experimental: Fresh blood was collected by syringe without anticoagulants from volunteers with consent. The subjects had no apparent inflammatory conditions and had not taken any medication for at least 7 days prior to blood collection. 500 μl aliquots of human whole blood were immediately incubated with 2 μl of either DMSO vehicle or a test compound at final concentrations for 1 hr at 37 C. to allow the blood to clot. Appropriate treatments (no incubation) were used as blanks. At the end of the incubation, 5 μl of 250 mM Indomethacin was added to stop the reaction. The blood was centrifuged at 6000×g for 5 min at 4 C to obtain serum. A 100 μl aliquot of serum was mixed with 400 μl methanol for protein precipitation. The supernatant was obtained by centrifuging at 6000×g for 5 min at 4 C and was assayed for TXB2 using an enzyme immunoassay kit according to the manufacturer's procedure. For a test compound, the results were expressed as percent inhibition of TXB2 production relative to control incubations containing DMSO vehicle. The data were analyzed by that a test compound at the indicated concentrations was changed log value and was applied simple linear regression. IC50 value was calculated by least squares method.

T1 sequence (P23219 24-599): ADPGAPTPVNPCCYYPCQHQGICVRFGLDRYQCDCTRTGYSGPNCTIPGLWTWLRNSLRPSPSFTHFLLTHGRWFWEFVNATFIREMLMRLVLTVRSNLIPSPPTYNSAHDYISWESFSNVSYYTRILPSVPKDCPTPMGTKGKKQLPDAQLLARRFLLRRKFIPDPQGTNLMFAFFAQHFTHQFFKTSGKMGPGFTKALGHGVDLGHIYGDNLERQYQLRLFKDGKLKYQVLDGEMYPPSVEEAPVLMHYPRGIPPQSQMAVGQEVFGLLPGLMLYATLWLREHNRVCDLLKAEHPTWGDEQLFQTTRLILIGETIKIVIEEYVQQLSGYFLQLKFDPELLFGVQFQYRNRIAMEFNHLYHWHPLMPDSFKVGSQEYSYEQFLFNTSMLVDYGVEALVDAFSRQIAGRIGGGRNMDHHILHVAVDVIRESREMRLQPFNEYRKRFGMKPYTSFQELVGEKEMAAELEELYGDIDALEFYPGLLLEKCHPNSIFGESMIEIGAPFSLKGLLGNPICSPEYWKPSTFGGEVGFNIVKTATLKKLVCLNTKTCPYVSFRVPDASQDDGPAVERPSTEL

Row | SMILES | IC50
4 | COc1ccc(-c2nc(OC(=O)N(C)C)nn2-c2ccc(OC)cc2)cc1 [Example 16, 1,5-bis(4-methoxyphenyl)-1H-1,2,4-triazol-3-yl dimethylcarbamate] | < 10 nM

Same assay, conditions: human whole blood, 1 hr at 37 C, TXB2 production; read-out: COX-I IC50

Row | SMILES | IC50
5 | COc1ccc(-c2nc(C(F)(F)F)nn2-c2ccc(OC)cc2)cc1 [1(2), 1,5-bis(4-methoxyphenyl)-3-(trifluoromethyl)-1H-1,2,4-triazole] | < 10 nM
6 | COc1ccc(-c2nc(SC)nn2-c2ccc(OC)cc2)cc1 [6(4), 1,5-bis(4-methoxyphenyl)-3-(methylthio)-1H-1,2,4-triazole] | < 10 nM
7 | COc1ccc(-c2nc(S(C)(=O)=O)nn2-c2ccc(OC)cc2)cc1 [6(6), 1,5-bis(4-methoxyphenyl)-3-(methylsulfonyl)-1H-1,2,4-triazole] | < 10 nM
8 | COc1ccc(-c2nc(C(F)(F)F)nn2-c2ccc(OC)nc2)cc1 [12(2), 2-methoxy-5-[5-(4-methoxyphenyl)-3-(trifluoromethyl)-1H-1,2,4-triazol-1-yl]pyridine] | < 10 nM
9 | COc1ccc(-c2nc(OCC(F)(F)F)nn2-c2ccc(OC)nc2)cc1 [15-(4), 2-methoxy-5-(5-(4-methoxyphenyl)-3-(2,2,2-trifluoroethoxy)-1H-1,2,4-triazol-1-yl)pyridine] | < 10 nM
10 | COc1ccc(-n2nc(C(F)(F)F)nc2-c2ccc(OC)nc2)cc1 [Example 8, 2-methoxy-5-[1-(4-methoxyphenyl)-3-(trifluoromethyl)-1H-1,2,4-triazol-5-yl]pyridine] | < 10 nM
11 | C#CCOc1nc(-c2ccc(OC)cc2)n(-c2ccc(OC)cc2)n1 [Example 17, 1,5-bis(4-methoxyphenyl)-3-(2-propynyloxy)-1H-1,2,4-triazole] | < 10 nM
12 | COc1ccc(-c2nc(OCc3cc(C)on3)nn2-c2ccc(OC)cc2)cc1 [Example 19, 1,5-bis(4-methoxyphenyl)-3-[(5-methyl-3-isoxazolyl)methoxy]-1H-1,2,4-triazole] | < 10 nM
13 | COc1ccc(-c2nc(OCc3cscn3)nn2-c2ccc(OC)cc2)cc1 [Example 20, 1,5-bis(4-methoxyphenyl)-3-(1,3-thiazol-4-ylmethoxy)-1H-1,2,4-triazole] | < 10 nM
14 | COc1ccc(-c2nc(OCC(=O)N(C)C)nn2-c2ccc(OC)cc2)cc1 [Example 21, 2-{[1,5-bis(4-methoxyphenyl)-1H-1,2,4-triazol-3-yl]oxy}-N,N-dimethylacetamide] | < 10 nM
15 | COc1ccc(-c2nc(OC(C)C)nn2-c2ccc(OC)cc2)cc1 [Example 23, 1,5-bis(4-methoxyphenyl)-3-(2-propoxy)-1H-1,2,4-triazole] | < 10 nM
16 | COc1ccc(-c2nc(OC3CCCCC3)nn2-c2ccc(OC)cc2)cc1 [Example 25, 1,5-bis(4-methoxyphenyl)-3-cyclohexyloxy-1H-1,2,4-triazole] | < 10 nM
17 | COc1ccc(-c2nc(OCc3ccc(Cl)cc3)nn2-c2ccc(OC)cc2)cc1 [Example 26, 1,5-bis(4-methoxyphenyl)-3-(4-chlorophenylmethoxy)-1H-1,2,4-triazole] | < 10 nM

Target: T2, COX-II (Homo sapiens, UniProt P35354)
T2 construct: lipopolysaccharide for 24 hr at 37 C for induction of COX-2; from tissue; host or cells: fresh heparinized human whole blood from volunteers, LPS-stimulated for 24 hr
T2 sequence (P35354 18-604): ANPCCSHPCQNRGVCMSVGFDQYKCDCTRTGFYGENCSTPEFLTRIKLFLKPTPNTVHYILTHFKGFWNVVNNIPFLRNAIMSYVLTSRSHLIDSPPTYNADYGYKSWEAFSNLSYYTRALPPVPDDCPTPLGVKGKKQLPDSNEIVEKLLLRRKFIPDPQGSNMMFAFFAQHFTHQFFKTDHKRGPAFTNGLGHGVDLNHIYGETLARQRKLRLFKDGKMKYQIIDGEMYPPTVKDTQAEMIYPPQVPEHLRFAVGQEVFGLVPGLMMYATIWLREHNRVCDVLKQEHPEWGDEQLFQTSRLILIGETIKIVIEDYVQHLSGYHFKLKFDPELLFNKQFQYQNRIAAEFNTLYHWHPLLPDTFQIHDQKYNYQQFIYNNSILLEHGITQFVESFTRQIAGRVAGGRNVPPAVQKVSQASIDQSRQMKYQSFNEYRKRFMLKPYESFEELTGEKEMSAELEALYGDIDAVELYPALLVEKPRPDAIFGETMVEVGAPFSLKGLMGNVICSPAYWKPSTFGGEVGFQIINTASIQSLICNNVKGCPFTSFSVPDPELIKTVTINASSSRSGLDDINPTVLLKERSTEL
Assay: Whole blood assay for COX-II (LPS-induced PGE2 production)
Type: cell-based
Conditions: not given
Experimental: Fresh blood was collected in heparinized tubes by syringe from volunteers with consent. The subjects had no apparent inflammatory conditions and had not taken any medication for at least 7 days prior to blood collection. 500 μl aliquots of human whole blood were incubated with either 2 μl DMSO vehicle or 2 μl of a test compound at final concentrations for 15 min at 37 C This was followed by incubation of the blood with 10 μl of 5 mg/ml lipopolysaccharide for 24 hr at 37 C for induction of COX-2. Appropriate PBS treatments (no LPS) were used as blanks. At the end of the incubation, the blood was centrifuged at 6000×g for 5 min at 4 C to obtain plasma. A 100 μl aliquot of plasma was mixed with 400 μl methanol for protein precipitation. The supernatant was obtained by centrifuging at 6000×g for 5 min at 4 C and was assayed for PGE2 using a radioimmunoassay kit after conversion of PGE2 to its methyl oximate derivative according to the manufacturer's procedure. For a test compound, the results were expressed as percent inhibition of PGE2 production relative to control incubations containing DMSO vehicle. The data were analyzed by that a test compound at the indicated concentrations was changed log value and was applied simple linear regression. IC50 value was calculated by least squares method.

Row | SMILES | IC50
18 | COc1ccc(-c2nc(OC(=O)N(C)C)nn2-c2ccc(OC)cc2)cc1 [Example 16, 1,5-bis(4-methoxyphenyl)-1H-1,2,4-triazol-3-yl dimethylcarbamate] | > 100 nM

Same assay, conditions: human whole blood, LPS 24 hr at 37 C, PGE2 production; read-out: COX-II IC50

Row | SMILES | IC50
19 | COc1ccc(-c2nc(C(F)(F)F)nn2-c2ccc(OC)cc2)cc1 [1(2), 1,5-bis(4-methoxyphenyl)-3-(trifluoromethyl)-1H-1,2,4-triazole] | > 100 nM
20 | COc1ccc(-c2nc(SC)nn2-c2ccc(OC)cc2)cc1 [6(4), 1,5-bis(4-methoxyphenyl)-3-(methylthio)-1H-1,2,4-triazole] | > 100 nM
21 | COc1ccc(-c2nc(S(C)(=O)=O)nn2-c2ccc(OC)cc2)cc1 [6(6), 1,5-bis(4-methoxyphenyl)-3-(methylsulfonyl)-1H-1,2,4-triazole] | > 100 nM
22 | COc1ccc(-c2nc(C(F)(F)F)nn2-c2ccc(OC)nc2)cc1 [12(2), 2-methoxy-5-[5-(4-methoxyphenyl)-3-(trifluoromethyl)-1H-1,2,4-triazol-1-yl]pyridine] | > 100 nM
23 | COc1ccc(-c2nc(OCC(F)(F)F)nn2-c2ccc(OC)nc2)cc1 [15-(4), 2-methoxy-5-(5-(4-methoxyphenyl)-3-(2,2,2-trifluoroethoxy)-1H-1,2,4-triazol-1-yl)pyridine] | > 100 nM
24 | COc1ccc(-n2nc(C(F)(F)F)nc2-c2ccc(OC)nc2)cc1 [Example 8, 2-methoxy-5-[1-(4-methoxyphenyl)-3-(trifluoromethyl)-1H-1,2,4-triazol-5-yl]pyridine] | > 100 nM
25 | C#CCOc1nc(-c2ccc(OC)cc2)n(-c2ccc(OC)cc2)n1 [Example 17, 1,5-bis(4-methoxyphenyl)-3-(2-propynyloxy)-1H-1,2,4-triazole] | > 100 nM
26 | COc1ccc(-c2nc(OCc3cc(C)on3)nn2-c2ccc(OC)cc2)cc1 [Example 19, 1,5-bis(4-methoxyphenyl)-3-[(5-methyl-3-isoxazolyl)methoxy]-1H-1,2,4-triazole] | > 100 nM
27 | COc1ccc(-c2nc(OCc3cscn3)nn2-c2ccc(OC)cc2)cc1 [Example 20, 1,5-bis(4-methoxyphenyl)-3-(1,3-thiazol-4-ylmethoxy)-1H-1,2,4-triazole] | > 100 nM
28 | COc1ccc(-c2nc(OCC(=O)N(C)C)nn2-c2ccc(OC)cc2)cc1 [Example 21, 2-{[1,5-bis(4-methoxyphenyl)-1H-1,2,4-triazol-3-yl]oxy}-N,N-dimethylacetamide] | > 100 nM
29 | COc1ccc(-c2nc(OC(C)C)nn2-c2ccc(OC)cc2)cc1 [Example 23, 1,5-bis(4-methoxyphenyl)-3-(2-propoxy)-1H-1,2,4-triazole] | > 100 nM
30 | COc1ccc(-c2nc(OC3CCCCC3)nn2-c2ccc(OC)cc2)cc1 [Example 25, 1,5-bis(4-methoxyphenyl)-3-cyclohexyloxy-1H-1,2,4-triazole] | > 100 nM
31 | COc1ccc(-c2nc(OCc3ccc(Cl)cc3)nn2-c2ccc(OC)cc2)cc1 [Example 26, 1,5-bis(4-methoxyphenyl)-3-(4-chlorophenylmethoxy)-1H-1,2,4-triazole] | > 100 nM

Tested on: platelet aggregation
Assay: Inhibiting activity on aggregation of platelet (collagen-induced, platelet-rich plasma)
Type: cell-based
Conditions: human platelet-rich plasma, collagen 0.5 μg/mL as agonist; read-out: IC50 (inhibition of platelet aggregation)
Experimental: Blood from healthy human volunteers was collected into plastic vessels containing 3.8% sodium citrate (1/10 volume). The subject had no taken any compounds for at least seven days prior to blood collection. Platelet-rich plasma was obtained from the supernatant fraction of blood after centrifugation at 1200 r.p.m. for 10 min. Platelet-poor plasma was obtained by centrifugation of the remaining blood at 3000 r.p.m. for 10 min.
Platelet aggregation was measured according to the turbidimetric method with an aggregometer (Hema Tracer). In the cuvette, platelet-rich plasma was pre-incubated for 2 min at 37 C after the addition of compounds or vehicle. In order to quantify the inhibitory effects of each compound, the maximum increase in light transmission was determined from the aggregation curve for 7 min after the addition of agonist. We used collagen as agonist of platelet aggregation in this study. The final concentration of collagen was 0.5 μg/mL. The effect of each compound was expressed as percentage inhibition agonist-induced platelet aggregation compared with vehicle treatment. Data are presented as the mean±S.E.M. for six experiments. The IC50 value was obtained by linear regression, and is expressed as the compound concentration required to produce 50% inhibition of agonist-induced platelet aggregation in comparison to vehicle treatment.

Row | SMILES | IC50
32 | COc1ccc(-c2nc(C(F)(F)F)nn2-c2ccc(OC)cc2)cc1 [1(2), 1,5-bis(4-methoxyphenyl)-3-(trifluoromethyl)-1H-1,2,4-triazole] | < 20 nM
33 | COc1ccc(-c2nc(OC)nn2-c2ccc(OC)cc2)cc1 [5(4), 3-Methoxy-1,5-bis(4-methoxyphenyl)-1H-1,2,4-triazole] | < 20 nM
34 | COc1ccc(-c2nc(OCC(F)(F)F)nn2-c2ccc(OC)nc2)cc1 [15-(4), 2-methoxy-5-(5-(4-methoxyphenyl)-3-(2,2,2-trifluoroethoxy)-1H-1,2,4-triazol-1-yl)pyridine] | < 20 nM
35 | COc1ccc(-c2nc(OCc3cc(C)on3)nn2-c2ccc(OC)cc2)cc1 [Example 19, 1,5-bis(4-methoxyphenyl)-3-[(5-methyl-3-isoxazolyl)methoxy]-1H-1,2,4-triazole] | < 20 nM
36 | COc1ccc(-c2nc(OC3CCCCC3)nn2-c2ccc(OC)cc2)cc1 [Example 25, 1,5-bis(4-methoxyphenyl)-3-cyclohexyloxy-1H-1,2,4-triazole] | < 20 nM

Tested on: not given
Assay: not given
Conditions: not given

Row | SMILES | melting point
37 | COc1ccc(-n2nc(OCC(F)(F)F)nc2-c2ccc(OC)nc2)cc1 [14-(3), 2-methoxy-5-(1-(4-methoxyphenyl)-3-(2,2,2-trifluoroethoxy)-1H-1,2,4-triazole-5-yl)pyridine] | 82 to 83 °C
38 | COc1ccc(-c2nc(OCC(F)(F)F)nn2-c2ccc(OC)nc2)cc1 [15-(4), 2-methoxy-5-(5-(4-methoxyphenyl)-3-(2,2,2-trifluoroethoxy)-1H-1,2,4-triazol-1-yl)pyridine] | 63 to 64 °C
39 | COc1ccc(-c2nc(OC(=O)N(C)C)nn2-c2ccc(OC)cc2)cc1 [Example 16, 1,5-bis(4-methoxyphenyl)-1H-1,2,4-triazol-3-yl dimethylcarbamate] | 121 to 123 °C
40 | C#CCOc1nc(-c2ccc(OC)cc2)n(-c2ccc(OC)cc2)n1 [Example 17, 1,5-bis(4-methoxyphenyl)-3-(2-propynyloxy)-1H-1,2,4-triazole] | 81 to 82 °C
